From patent US8815901B2 (Novartis AG, priority 2008, dated 2014) come the findings set out here.

The structures appear in SMILES notation.

Sequence of FGFR3 kinase (P22607 23-806 K650E): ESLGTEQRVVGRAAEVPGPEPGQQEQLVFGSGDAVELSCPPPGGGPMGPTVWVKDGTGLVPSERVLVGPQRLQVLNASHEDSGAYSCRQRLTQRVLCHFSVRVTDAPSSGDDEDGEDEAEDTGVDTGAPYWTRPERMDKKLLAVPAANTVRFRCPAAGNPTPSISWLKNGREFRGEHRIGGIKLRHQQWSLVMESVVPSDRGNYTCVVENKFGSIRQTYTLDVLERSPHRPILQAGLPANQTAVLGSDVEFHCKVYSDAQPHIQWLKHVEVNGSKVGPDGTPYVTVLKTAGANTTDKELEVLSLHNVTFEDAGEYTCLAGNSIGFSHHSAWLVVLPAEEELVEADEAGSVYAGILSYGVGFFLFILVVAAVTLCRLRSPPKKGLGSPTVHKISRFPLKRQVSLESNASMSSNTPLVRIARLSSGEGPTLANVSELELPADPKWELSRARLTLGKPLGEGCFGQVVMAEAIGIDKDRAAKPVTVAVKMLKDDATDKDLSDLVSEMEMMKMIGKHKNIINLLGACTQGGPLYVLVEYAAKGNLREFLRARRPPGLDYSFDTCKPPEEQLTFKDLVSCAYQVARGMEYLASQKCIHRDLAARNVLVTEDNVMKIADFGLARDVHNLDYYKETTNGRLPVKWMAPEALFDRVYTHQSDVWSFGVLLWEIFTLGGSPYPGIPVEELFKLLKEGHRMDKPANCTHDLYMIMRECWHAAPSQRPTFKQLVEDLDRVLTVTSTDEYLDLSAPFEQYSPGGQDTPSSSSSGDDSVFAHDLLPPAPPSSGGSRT

The experiment has as its target FGFR3 kinase (Homo sapiens (Human), UniProt P22607, K650E). Kind of experiment: FGFR3 kinase inhibition assay (radiometric filter binding / LanthaScreen TR-FRET). Type of experiment: biochemical. The conditions noted are these: read-out: rating (FGFR3 kinase IC50). The procedure:
Enzyme activities were measured by mixing 10 μL of a 3-fold concentrated compound solution or control with 10 μL of the corresponding substrate mixture (peptidic substrate, ATP and [γ^33P]ATP). The reactions were initiated by addition of 10 μL of a 3-fold concentrated solution of the respective enzyme in assay buffer.
Filter binding (FB) method: FB assays were carried out in 96-well plates at room temperature for 10 min in a finial volume of 30 μL including the components as indicated in section above. […] After spotting, vacuum was connected and each well rinsed with 200 μL 0.5% H3PO4. Free membranes were removed and washed 4 times on a shaker with 1% H3PO4 and once with ethanol. Membranes were dried and overlaid with addition of 10 μL/well of a scintillation fluid. The plates were eventually sealed and counted in a microplate scintillation counter. IC50 values were calculated by linear regression analysis of the percentage inhibition of the compound.
The assay has been run at room temperature on a liquid handling robot. […] After an incubation time of 45 min in the dark, the plates were transferred into a fluorescence reader for counting.
Compounds of formula (I) are assayed to measure their capacity to inhibit FGFR3 kinase as described above.
(Time-resolved FRET reads energy transfer from a long-lived donor to a nearby acceptor.)
A word on the IC50: it is the concentration that inhibits the measured activity by half. For the compound `COc1cc(OC)c(Cl)c(-c2ccc(C(=O)Nc3nnc[nH]3)c3nccnc23)c1Cl` [Example 17, 8-(2,6-Dichloro-3,5-dimethoxy-phenyl)-quinoxaline-5-carboxylic acid (4H-[1,2,4]triazol-3-yl)-amide], the IC50 was in the range of 500 to 50000 nM.

As for `COc1cc(OC)c(Cl)c(-c2ccc(C(=O)Nc3ccn(CCN(C)C)c3)c3nccnc23)c1Cl` [Example 121, 8-(2,6-Dichloro-3,5-dimethoxy-phenyl)-quinoxaline-5-carboxylic acid [1-(2-dimethylamino-ethyl)-1H-pyrrol-3-yl]-amide], the IC50 is 500 to 50000 nM.

As to `COc1ccc(Cl)c(-c2ccc(C(=O)Nc3ccc(OCCN(C)C)cc3)c3nccnc23)c1` [Example 65, 8-(2-Chloro-5-methoxy-phenyl)-quinoxaline-5-carboxylic acid [4-(2-dimethylamino-ethoxy)-phenyl]-amide], the IC50 lay within 500 to 50000 nM.

For the compound `CCN1CCN(c2ccc(NC(=O)c3ccc(-c4c(C)cccc4C)c4nccnc34)cc2)CC1` [Example 72, 8-(2,6-Dimethyl-phenyl)-quinoxaline-5-carboxylic acid [4-(4-ethyl-piperazin-1-yl)-phenyl]-amide], the IC50 lay in the range of 500 to 50000 nM.

As for `COc1cc(OC)c(Cl)c(-c2ccc(C(=O)Nc3ncc[nH]3)c3ncccc23)c1Cl` [Example 161, 5-(2,6-Dichloro-3,5-dimethoxy-phenyl)-quinoline-8-carboxylic acid (1H-imidazol-2-yl)-amide], the IC50 was < 100 nM.

On to `COc1cc(OC)c(Cl)c(-c2ccc(C(=O)Nc3ccc(N4CCN(C(C)C)CC4)nc3)c3nccnc23)c1Cl` [Example 33, 8-(2,6-Dichloro-3,5-dimethoxy-phenyl)-quinoxaline-5-carboxylic acid [6-(4-isopropyl-piperazin-1-yl)-pyridin-3-yl]-amide], for which the IC50 was < 100 nM.

For the compound `COc1cc(OC)c(Cl)c(-c2ccc(C(=O)Nc3cccnc3)c3ncc(N(C)CCN(C)C)nc23)c1Cl` [Example 87, 8-(2,6-Dichloro-3,5-dimethoxy-phenyl)-2-[(2-dimethylamino-ethyl)-methyl-amino]-quinoxaline-5-carboxylic acid pyridin-3-ylamide], the IC50 lay within 500 to 50000 nM.

In the case of `COc1cc(OC)c(Cl)c(-c2ccc(C(=O)Nc3ccc(CN4CCS(=O)(=O)CC4)cn3)c3nccnc23)c1Cl` [Example 104, 8-(2,6-Dichloro-3,5-dimethoxy-phenyl)-quinoxaline-5-carboxylic acid [5-(1,1-dioxothiomorpholin-4-ylmethyl)-pyridin-2-yl]-amide], the IC50 lay within 100 to 500 nM.

With `COc1cc(OC)c(Cl)c(-c2ccc(C(=O)Nc3nnc[nH]3)c3ncccc23)c1Cl` [Example 163], the IC50 was in the range of 500 to 50000 nM.

As to `COc1cc(OC)c(Cl)c(-c2ccc(C(=O)Nc3ccc(N(C)C4CCN(C)CC4)nc3)c3nccnc23)c1Cl` [Example 37, 8-(2,6-Dichloro-3,5-dimethoxy-phenyl)-quinoxaline-5-carboxylic acid {6-[methyl-(1-methyl-piperidin-4-yl)-amino]-pyridin-3-yl}-amide], the IC50 is < 100 nM.

On to `COc1cc(OC)c(F)c(-c2ccc(C(=O)Nc3ccc(CN4CCS(=O)(=O)CC4)cn3)c3nccnc23)c1F` [Example 140, 8-(2,6-Difluoro-3,5-dimethoxy-phenyl)-quinoxaline-5-carboxylic acid [5-(1,1-dioxo-thiomorpholin-4-ylmethyl)-pyridin-2-yl]-amide], for which the 50% inhibitory concentration (IC50) was < 100 nM.

In the case of `CCN1CCN(Cc2ccc(NC(=O)c3ccc(-c4c(Cl)c(OC)cc(OC)c4Cl)c4cccnc34)nc2)CC1` [Example 165, 5-(2,6-Dichloro-3,5-dimethoxy-phenyl)-quinoline-8-carboxylic acid [5-(4-ethyl-piperazin-1-ylmethyl)-pyridin-2-yl]-amide], the IC50 was in the range of 100 to 500 nM.

For the compound `COc1cc(OC)c(F)c(-c2ccc(C(=O)Nc3cccnc3)c3nccnc23)c1F` [Example 90, 8-(2,6-Difluoro-3,5-dimethoxy-phenyl)-quinoxaline-5-carboxylic acid pyridin-3-ylamide], the IC50 was in the range of 100 to 500 nM.

On to `COc1cc(OC)c(Cl)c(-c2ccc(C(=O)Nc3ccc(CN4CCN(C)CC4)nc3)c3ncccc23)c1Cl` [Example 168, 5-(2,6-Dichloro-3,5-dimethoxy-phenyl)-quinoline-8-carboxylic acid [6-(4-methyl-piperazin-1-ylmethyl)-pyridin-3-yl]-amide], for which the IC50 fell in the range of 100 to 500 nM.

Turning to `COc1cc(OC)c(Cl)c(-c2ccc(C(=O)Nc3ccc(OCCN(C)C)cc3)c3nccnc23)c1Cl` [Example 5, 8-(2,6-Dichloro-3,5-dimethoxy-phenyl)-quinoxaline-5-carboxylic acid [4-(2-dimethylamino-ethoxy)-phenyl]-amide], the IC50 was < 100 nM.

For `COc1cc(OC)c(F)c(-c2ccc(C(=O)Nc3ccc(CN4CCN(C)CC4)nc3)c3nccnc23)c1F` [Example 89, 8-(2,6-Difluoro-3,5-dimethoxy-phenyl)-quinoxaline-5-carboxylic acid [6-(4-methyl-piperazin-1-ylmethyl)-pyridin-3-yl]-amide], the IC50 is < 100 nM.

For `COc1cc(OC)c(Cl)c(-c2ccc(C(=O)Nc3ccc(CN4CCN(C)CC4)cn3)c3ncccc23)c1Cl` [Example 164, 5-(2,6-Dichloro-3,5-dimethoxy-phenyl)-quinoline-8-carboxylic acid [5-(4-methyl-piperazin-1-ylmethyl)-pyridin-2-yl]-amide], the IC50 is < 100 nM.

With `CCN1CCN(c2ccc(NC(=O)c3ccc(-c4c(Cl)c(OC)cc(OC)c4Cl)c4nccnc34)cc2)CC1` [Example 1, 8-(2,6-Dichloro-3,5-dimethoxy-phenyl)-quinoxaline-5-carboxylic acid [4-(4-ethylpiperazin-1-yl)-phenyl]-amide], the IC50 is < 100 nM.

With `COc1cc(OC)c(Cl)c(-c2ccc(C(=O)Nc3nccn3Cc3ccccc3)c3ncccc23)c1Cl` [Example 160, 5-(2,6-Dichloro-3,5-dimethoxy-phenyl)-quinoline-8-carboxylic acid (1-benzyl-1H-imidazol-2-yl)-amide], the IC50 is 500 to 50000 nM.

Regarding `COc1cc(OC)c(Cl)c(-c2ccc(C(=O)Nc3ccc(CN4CCNCC4)nc3)c3ncccc23)c1Cl` [Example 171, 5-(2,6-Dichloro-3,5-dimethoxy-phenyl)-quinoline-8-carboxylic acid (6-piperazin-1-ylmethyl-pyridin-3-yl)-amide], the IC50 was in the range of 500 to 50000 nM.

Consider `COc1cc(OC)c(Cl)c(-c2ccc(C(=O)Nc3ccc(O)cc3)c3nccnc23)c1Cl` [Example 7, 8-(2,6-Dichloro-3,5-dimethoxy-phenyl)-quinoxaline-5-carboxylic acid (4-hydroxyphenyl)-amide], for which the IC50 is 500 to 50000 nM.

As for `CCN1CCN(Cc2ccc(NC(=O)c3ccc(-c4c(Cl)c(OC)cc(OC)c4Cl)c4cccnc34)cn2)CC1` [Example 169, 5-(2,6-Dichloro-3,5-dimethoxy-phenyl)-quinoline-8-carboxylic acid [6-(4-ethyl-piperazin-1-ylmethyl)-pyridin-3-yl]-amide], the IC50 was 100 to 500 nM.

For the compound `COc1cc(OC)c(Cl)c(-c2ccc(C(=O)Nc3ccc(CN(C)CCN(C)C)cn3)c3nccnc23)c1Cl` [Example 81, 8-(2,6-Dichloro-3,5-dimethoxy-phenyl)-quinoxaline-5-carboxylic acid (5-{[(2-dimethylamino-ethyl)-methyl-amino]-methyl}-pyridin-2-yl)-amide], the IC50 is < 100 nM.

On to `CCN1CCN(Cc2ccc(NC(=O)c3ccc(-c4cc(OC)cc(OC)c4)c4nccnc34)nc2)CC1` [Example 115, 8-(3,5-Dimethoxy-phenyl)-quinoxaline-5-carboxylic acid [5-(4-ethyl-piperazin-1-ylmethyl)-pyridin-2-yl]-amide], for which the IC50 lay within 500 to 50000 nM.

Consider `CCN1CCN(Cc2ccc(NC(=O)c3ccc(-c4c(F)c(OC)cc(OC)c4F)c4nccnc34)cn2)CC1` [Example 88, 8-(2,6-Difluoro-3,5-dimethoxy-phenyl)-quinoxaline-5-carboxylic acid [6-(4-ethyl-piperazin-1-ylmethyl)-pyridin-3-yl]-amide], for which the IC50 is < 100 nM.

For `COc1cc(OC)cc(-c2ccc(C(=O)Nc3ccc(CN4CCNCC4)cn3)c3nccnc23)c1` [Example 117], the IC50 is 500 to 50000 nM.

For the compound `COc1cc(OC)c(F)c(-c2ccc(C(=O)Nc3nc(CN4CCN(C)CC4)c[nH]3)c3nccnc23)c1F` [Example 141, 8-(2,6-Difluoro-3,5-dimethoxy-phenyl)-quinoxaline-5-carboxylic acid [4-(4-methyl-piperazin-1-ylmethyl)-1H-imidazol-2-yl]-amide], the IC50 is < 100 nM.

With `COc1cc(OC)c(Cl)c(-c2ccc(C(=O)Nc3cnc[nH]3)c3ncccc23)c1Cl` [Example 162, 5-(2,6-Dichloro-3,5-dimethoxy-phenyl)-quinoline-8-carboxylic acid (3H-imidazol-4-yl)-amide], the IC50 is 100 to 500 nM.
